According to publication PMC12163635, “Synthetic Retinoids for the Modulation of Genomic and Nongenomic Processes in Neurodegenerative Diseases” (ACS Omega, 2025):
Where two headings read alike, the source gives them in different places.

Assays:
[1] = system: ERK1/2 phosphorylation in SH-SY5Y cells; assay: ERK1/2 phosphorylation (nongenomic response), AlphaScreen SureFire; format: cell-based, human; parameters: nongenomic response Emax (±95% CI): unit not given here; settings: for EC50: Homo sapiens, read-out: nongenomic response EC50 (±95% CI)
Procedure, shortened: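 SH-SY5Y cells (100,000/well) were serum-starved for 24 h, then exposed to retinoids in serum-free DMEM for 60 min at 37 °C with 0.1% DMSO final. Phospho-ERK1/2 in lysates was read by AlphaScreen SureFire. Values come from sigmoidal log(agonist)–response fits, as mean ± SEM of three independent experiments run in triplicate.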

SH-SY5Y cells = assay: Neurite outgrowth; format: cell-based, human; settings: for fold induction at 0.01 µM: Homo sapiens, SH-SY5Y, 120 h, read-out: fold increase in neurite outgrowth
Procedure, shortened: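 After 24 h on poly-L-lysine-coated coverslips in DMEM/10% FCS, SH-SY5Y cells received retinoids at 10 μM or 10 nM (final DMSO 0.01 or 0.0001%) for 5 days at 37 °C. Cells fixed and stained for β-III tubulin. Average neurite length per image (total length/neurite number, 10 images per coverslip), mean ± SEM of three experiments.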

[2] = system: Sil-15 cells containing a RARE driving a lacZ reporter; assay: X-Gal-based RA reporter assay (genomic response); format: cell-based; parameters: genomic response Emax (±95% CI): unit not given here; settings: for genomic E max compared with ATRA / genomic EC50 compared with ATRA: nonoverlapping 95% CI; for EC50: read-out: genomic response EC50 (±95% CI), overnight, 10^–6 to 10^–14 M; for EC50 / genomic response Emax (±95% CI): Sil-15 reporter cells; for genomic response Emax (±95% CI): absorbance at 650 nm
Procedure, shortened: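 F9-derived Sil-15 cells with DR5 RARE-lacZ, 100,000/well, exposed overnight at 37 °C to retinoids at 10^–6 to 10^–14 M. Fixed, X-gal developed, read at 650 nm; EC50 and Emax from sigmoidal log(agonist)–response fit, mean ± SEM of three experiments.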

[3] = 10 nM compound, 5 days, in comparison to nontreated cells

| EC50 [2] [nM] | nongenomic response EC50 (±95% CI) ([1]; SH-SY5Y cells, 1 h) | SMILES | EC50 ([1]; SH-SY5Y cells, 1 h) [nM] | nongenomic response Emax (±95% CI) ([1]; SH-SY5Y cells, 1 h) | fold induction at 0.01 µM (SH-SY5Y cells; [3]) | genomic E max compared with ATRA [2] | genomic EC50 compared with ATRA [2] | induction of ERK1/2 phosphorylation (nongenomic activity) ([1]; SH-SY5Y cells, 1 h) | genomic response Emax (±95% CI) [2] | nongenomic E max compared with ATRA ([1]; nonoverlapping 95% CI) | induction of neurite outgrowth compared with ATRA (SH-SY5Y cells; 10 nM, 5 days) | fold induction at 0.01 µM (SH-SY5Y cells) |
| --- | --- | --- | --- | --- | --- | --- | --- | --- | --- | --- | --- | --- |
| 0.0155 |  | Cc1sc(-c2ccc(C(=O)O)c(F)c2)nc1-c1cnc2c(n1)C(C)(C)CCC2(C)C [Compound 42, 2-Fluoro-4-[5-methyl-4-(5,5,8,8-tetramethyl-5,6,7,8-tetrahydroquinoxalin-2-yl)-1,3-thiazol-2-yl]benzoic Acid] | 12.5 | 54.1 (±4.07) | 1.7 | significantly higher E max than ATRA | significantly lower EC50 than ATRA |  |  |  |  |  |
| 1.64 | no response | Cc1sc(-c2ccc(C(=O)O)cc2F)nc1-c1cnc2c(n1)C(C)(C)CCC2(C)C [Compound 43, 3-Fluoro-4-[5-methyl-4-(5,5,8,8-tetramethyl-5,6,7,8-tetrahydroquinoxalin-2-yl)-1,3-thiazol-2-yl]benzoic Acid] |  | no response | 1.8 | significantly higher E max than ATRA |  | lacked nongenomic activity | 195 (±35.2) |  |  |  |

| SMILES | EC50 [2] [nM] | nongenomic response EC50 (±95% CI) ([1]; SH-SY5Y cells, 1 h) | EC50 ([1]; SH-SY5Y cells, 1 h) [nM] | nongenomic response Emax (±95% CI) ([1]; SH-SY5Y cells, 1 h) | fold induction at 0.01 µM (SH-SY5Y cells; [3]) | genomic E max compared with ATRA [2] | genomic EC50 compared with ATRA [2] | induction of ERK1/2 phosphorylation (nongenomic activity) ([1]; SH-SY5Y cells, 1 h) | genomic response Emax (±95% CI) [2] | nongenomic E max compared with ATRA ([1]; nonoverlapping 95% CI) | induction of neurite outgrowth compared with ATRA (SH-SY5Y cells; 10 nM, 5 days) | fold induction at 0.01 µM (SH-SY5Y cells) |
| --- | --- | --- | --- | --- | --- | --- | --- | --- | --- | --- | --- | --- |
| Cc1sc(-c2ccc(C(=O)O)cc2)nc1-c1ccc2c(c1)C(C)(C)CCC2(C)C [GZ25, reference compound] | 0.184 |  | 3.57 | 76.6 (±2.61) |  | significantly higher E max than ATRA | significantly lower EC50 than ATRA |  | 209 (±15.5) | E max values significantly higher than ATRA | induced significant neurite outgrowth compared to ATRA | 1.8 |
